Experiment: xn = mol fraction of the nth substance listed
Conditions: Fluid (supercritical or subcritical phases), Vibrating wire viscometry, x2 = 0.5174

C [methane] + O=C=O
Conditions	viscosity [mPa·s]
229 K, 14501 kPa	0.073
229.3 K, 12980 kPa	0.0703
229.4 K, 11654 kPa	0.06874
229.5 K, 10963 kPa	0.0679
229.5 K, 13698 kPa	0.0721
229.5 K, 14200 kPa	0.07231
229.6 K, 10168 kPa	0.06646
257.8 K, 19252 kPa	0.05496
257.8 K, 21263 kPa	0.0575
257.9 K, 12165 kPa	0.04274
257.9 K, 14190 kPa	0.047
257.9 K, 18239 kPa	0.0541
257.9 K, 22280 kPa	0.05903
257.9 K, 23289 kPa	0.05979
258 K, 16209 kPa	0.05083
287.7 K, 7818 kPa	0.01711
287.7 K, 8134 kPa	0.01748
287.7 K, 11663 kPa	0.02384
287.7 K, 12567 kPa	0.02598
287.7 K, 13512 kPa	0.02819
287.7 K, 14605 kPa	0.03051
287.7 K, 15897 kPa	0.03311
287.7 K, 17472 kPa	0.03599
287.7 K, 19398 kPa	0.0392
287.7 K, 21895 kPa	0.04255
287.7 K, 25061 kPa	0.04633
287.8 K, 8895 kPa	0.01845
287.8 K, 9137 kPa	0.01889
287.8 K, 9866 kPa	0.02011
287.8 K, 31033 kPa	0.0527
288.1 K, 1438 kPa	0.01349
288.1 K, 1553 kPa	0.0135
288.1 K, 2042 kPa	0.01369
288.1 K, 2553 kPa	0.01388
288.1 K, 3073 kPa	0.01402
288.1 K, 3570 kPa	0.01425
288.1 K, 5123 kPa	0.01498
288.1 K, 5405 kPa	0.01519
288.2 K, 4066 kPa	0.01442
288.2 K, 4594 kPa	0.01468
288.2 K, 6609 kPa	0.01593
288.2 K, 7116 kPa	0.01636
288.2 K, 9140 kPa	0.01892
288.2 K, 11159 kPa	0.02281
288.2 K, 13180 kPa	0.02721
288.2 K, 15201 kPa	0.03146
288.2 K, 19138 kPa	0.03829
288.2 K, 21458 kPa	0.04192
288.2 K, 23984 kPa	0.04512
288.2 K, 25172 kPa	0.04621
288.2 K, 26302 kPa	0.04748
317.8 K, 2056 kPa	0.01479
317.9 K, 1389 kPa	0.01457
317.9 K, 1545 kPa	0.01462
318 K, 2566 kPa	0.015
318 K, 3069 kPa	0.01518
318 K, 4578 kPa	0.01571
318 K, 5085 kPa	0.01587
318 K, 6297 kPa	0.01646
318.1 K, 6520 kPa	0.01648
318.1 K, 7151 kPa	0.01689
318.1 K, 7212 kPa	0.01688
318.1 K, 8226 kPa	0.01751
318.1 K, 9335 kPa	0.0182
318.1 K, 10457 kPa	0.01916
318.1 K, 11460 kPa	0.02013
318.1 K, 12573 kPa	0.02123
318.1 K, 13584 kPa	0.02235
318.1 K, 14713 kPa	0.02377
318.1 K, 15239 kPa	0.02432
318.1 K, 15724 kPa	0.02502
318.1 K, 16254 kPa	0.02562
318.1 K, 17842 kPa	0.02789
318.1 K, 20300 kPa	0.03122
318.1 K, 21518 kPa	0.03236
318.1 K, 22819 kPa	0.03405
318.1 K, 24011 kPa	0.03506
318.1 K, 25249 kPa	0.03636
318.1 K, 26412 kPa	0.03781
318.1 K, 27392 kPa	0.03909
318.1 K, 28884 kPa	0.04047
318.1 K, 30364 kPa	0.04187
318.1 K, 31857 kPa	0.04341
347.7 K, 4516 kPa	0.01665
347.8 K, 2161 kPa	0.01599
347.8 K, 2764 kPa	0.01606
347.8 K, 2964 kPa	0.01612
347.8 K, 3169 kPa	0.01615
347.8 K, 3278 kPa	0.01616
347.8 K, 3485 kPa	0.01631
347.8 K, 4003 kPa	0.01648
347.8 K, 5009 kPa	0.01682
347.8 K, 5509 kPa	0.01696
347.8 K, 5514 kPa	0.01701
347.8 K, 6032 kPa	0.01714
347.8 K, 6512 kPa	0.01731
347.8 K, 7016 kPa	0.01746
347.8 K, 7538 kPa	0.01766
347.8 K, 8039 kPa	0.01795
347.8 K, 8528 kPa	0.01812
347.8 K, 9051 kPa	0.01836
347.8 K, 10090 kPa	0.0189
347.8 K, 10617 kPa	0.01914
347.8 K, 11109 kPa	0.01948
347.8 K, 11596 kPa	0.01976
347.8 K, 12118 kPa	0.02008
347.8 K, 12605 kPa	0.02043
347.8 K, 13204 kPa	0.02102
347.8 K, 13713 kPa	0.02132
347.8 K, 14226 kPa	0.02172
347.8 K, 14732 kPa	0.02205
347.8 K, 16775 kPa	0.02364
347.8 K, 18782 kPa	0.02533
347.8 K, 20792 kPa	0.02732
347.9 K, 1555 kPa	0.01586
347.9 K, 1745 kPa	0.01584
347.9 K, 1956 kPa	0.01592
347.9 K, 2361 kPa	0.01592
347.9 K, 2566 kPa	0.01603
